US4933332A, “11-desoxy-17-α-hydroxycorticosterone derivatives” (priority 1988, dated 1990)
Where “and” joins values, the source holds several entries; their conditions need not be identical. Identical values can stand only once.

Key:
Hepatoma G-61 = assay: Antitumor effect on grafted hepatoma G-61; assay type: in vivo, mice and rats; settings: in vivo
[1] = system: cytoplasmatic receptors of glucocorticoids in human lung cancer; assay: Inhibition of specific combining of [^3 H]-dexamethazone, human lung cancer; assay type: binding
Text: (§1) The inhibition, thereby, of a specific combining of [^3 H]-dexamethazone in tumors of animals reaches 70-100%. 11-Desoxy-17-α-hydroxy-21-[p-di(2-chloroethyl)aminophenylacetate] corticosterone also reacts with cytoplasmatic receptors of glucocorticoids in tumors in human beings.

[2] = system: Viral leukosis Mazurenko LMC-1; assay: Antitumor effect on grafted hemoblastoses (LMC-1), extension of lifespan; assay type: in vivo, mice and rats; settings: in vivo
[3] = system: Breast carcinoma metastasizing into lungs KML; assay: Duration of the antitumor effect, breast carcinoma KML; assay type: in vivo, mice and rats
Text: (§2) For the study of the antitumor activity of the compounds according to the present invention use was made of regrafted hemoblastoses, grafted solid tumors, induced and spontaneous tumors of mice and rats. The following models were used: L 1210, P-388, hemocytoblastosis La, MOPC-406, viral lympholeukosis Mazurenko LMC-1, Ca-755, mammary carcinoma metastasizing into lungs KML, alveolar mammary cancer RMK-1, small intenstine adenocarcinoma AKATON, large intestine adenocarcinoma AKATOL, Lewis lung carcinoma LL, lung adenocarcinoma RL-67, hepatomae G-22c, G-60, G-61, sarcomae S-37 and S-180, DMBA (dimethylbenzanthracene)-induced and spontaneous mammary tumors, and […] (dimethylhydrazine)-induced tumors of the large intestine.
(§3) The studies were carried out on line mice and their first-generation hybrids, as well as on mongrel mice and rats.
(§4) The compounds were administered to the animals hypodermally in kernel oil. For the purpose of comparison, a known hormonocytostatic estracyte (estra-1,3,5-(10)treine-3,17β-diol-3N-[bis-(2-chloroethyl)carbamate-17-sodium phosphate] was used which was administered hypodermally in a solution of a 0.9% NaCl, chlorphenacyl and chloroambucyl which were administered intraperitoneally in a 10% solution of ethanol, sarcolysine (β-[p-di(2-chloroethyl)aminophenyl]-α-alanine hydrochloride)--intraperitoneally in a 0.9% solution of NaCl, prednisolone (pregnadiene-1,4-triol-11β,17α,21-dione-3,20)--per os in a starch size.
(§5) Criteria of the antitumor activity of the compounds according to the present invention are: extension of the lifespan of the animals (ELA, %) and tumor growth inhibition (TGI, %). [formula] T--average lifespan of the treated animals; C--average lifespan of the control animals. [formula] O--average tumor volume in the group of treated animals; K--average tumor volume in the group of control animals.

animals = assay: Estral response in animals; settings: in vivo
Text: The hormonal effect of 11-desoxy-17α-hydroxy-21-[p-di-(2-chloroethyl)aminophenylacetate] corticosterone is associated with exhibition of a glucocorticoidal activity thereby.

[4] = system: DNA of sarcoma S-37 cells; assay: Cross-linking and ruptures in DNA of tumoral cells (alkaline saccharose gradient sedimentation)
in vivo = settings: mouse
[5] = system: Large intestine adenocarcinoma AKATOL; assay: Antitumor effect on grafted large intestine adenocarcinoma AKATOL; assay type: in vivo, mice and rats; settings: in vivo
[6] = system: Spontaneous mammary tumors of mice; assay: Effect on spontaneous breast tumors in repeated treatment courses; assay type: in vivo
Text: as §2, §4, §5
In the case of using spontaneous or induced tumors, by means of carcinogenic substances, the criteria of the antitumor effect are: TGI, % or decrease in the tumor size, %, as compared to its initial value. The treatment of spontaneous and induced tumors was initiated after achieving, by these tumors, of a particular size excluding the possibility of a spontaneous regression.

[7] = system: Lung adenocarcinoma RL-67; assay: Duration of the antitumor effect, lung adenocarcinoma RL-67; assay type: in vivo, mice and rats
Text: as §2, §3, §4, §5

La = system: La; parameters: species or system mice and rats; settings: in vivo
[8] = Toxicological study, limiting toxicity
[9] = system: grafted hemoblastoses and solid tumors; assay: Antitumor activity, summary over the tumor models; assay type: in vivo, mice and rats
Text: as §2, §3, §4, §5

P-388 = assay: Antitumor effect on grafted hemoblastoses (P-388), extension of lifespan; assay type: in vivo, mice and rats; settings: in vivo
S-180 = system: S-180; parameters: species or system mice and rats; settings: in vivo
Hepatoma G-60 = assay: Antitumor effect on grafted hepatoma G-60; assay type: in vivo, mice and rats; settings: in vivo
[10] = system: adrenalectomized rat youngsters; assay: Lifespan of adrenalectomized rat youngsters (biological test for the glucocorticoidal activity); assay type: in vivo; settings: 25-days adrenalectomized rats
S-37 = assay: Antitumor effect on grafted solid tumor S-37; assay type: in vivo, mice and rats; settings: in vivo
Lewis lung carcinoma LL = assay: Antitumor effect on grafted Lewis lung carcinoma LL; assay type: in vivo, mice and rats; settings: in vivo
[11] = system: DNA of normal (spleen) cells; assay: Regeneration of injured DNA in normal tissue vs tumor tissue; settings: compared with tumor tissue
L 1210 = assay: Antitumor effect on grafted hemoblastoses (L 1210), extension of lifespan; assay type: in vivo, mice and rats; settings: in vivo, sc
[12] = system: receptors of glucocorticoids in grafted tumors of animals (RL-67, G-60, G-61, G-22c, Ca-755, S-37, AKATOL, AKATON); assay: Inhibition of specific combining of [^3 H]-dexamethazone in grafted tumors of animals; assay type: binding
Text: as §1

[13] = system: Alveolar mammary cancer RMK-1; assay: Antitumor effect on grafted alveolar mammary cancer RMK-1; assay type: in vivo, mice and rats; settings: in vivo

C[C@]12CCC(=O)C=C1CC[C@@H]1[C@@H]2CC[C@@]2(C)[C@H]1CC[C@]2(O)C(=O)COC(=O)Cc1ccc(N(CCCl)CCCl)cc1 [11-desoxy-17α-hydroxy-21-[p-di(2-chloroethyl)-aminophenylacetate] corticosterone]
Maximum tumor growth inhibition (Hepatoma G-61): 89%
inhibition of specific combining of [^3 H]-dexamethazone [1]: 83%
Extension of the lifespan of the animals (ELA) [2]: 344%
cure [2]: 33%
Extension of the lifespan ([3]; 45 mg/kg × 1, day 10): 57%
Tumor growth inhibition ([3]; 45 mg/kg × 1, day 10, day 15 of experiment): 80%
Tumor growth inhibition ([3]; 45 mg/kg × 1, day 10, day 22 of experiment): 53%
Tumor growth inhibition ([3]; 45 mg/kg × 1, day 10, day 29 of experiment): 61%
estral response (animals): short-time estral response
number and duration of retention of cross-linking in DNA molecules of S-37 cells [4]: superior to chlorophenacyl
LD50 (in vivo): 80 mg/kg
MTD (in vivo): 44 mg/kg
Maximum tumor growth inhibition [5]: 98%
activity in repeated treatment courses ([6]; Table 4): reveals activity in repeated treatment courses
reduction in size of spontaneous tumors in breasts ([6]; compared to the size prior to the treatment): causes reduction in size of induced and spontaneous tumors
Increased lifespan ([6]; spontaneous, mice, 15 mg/kg/24 h × 5, 2 courses, 3 weeks interval): 11%
Decrease or increase (+) of the tumor, % of the initial one ([6]; spontaneous, mice, 15 mg/kg/24 h × 5, 2 courses, 3 weeks interval, week 1): 23%
Decrease or increase (+) of the tumor, % of the initial one ([6]; spontaneous, mice, 15 mg/kg/24 h × 5, 2 courses, 3 weeks interval, week 2): 37%
Decrease or increase (+) of the tumor, % of the initial one ([6]; spontaneous, mice, 15 mg/kg/24 h × 5, 2 courses, 3 weeks interval, week 3): +7%
Decrease or increase (+) of the tumor, % of the initial one ([6]; spontaneous, mice, 15 mg/kg/24 h × 5, 2 courses, 3 weeks interval, week 4): 64%
Decrease or increase (+) of the tumor, % of the initial one ([6]; spontaneous, mice, 15 mg/kg/24 h × 5, 2 courses, 3 weeks interval, week 5): 20%
Decrease or increase (+) of the tumor, % of the initial one ([6]; spontaneous, mice, 15 mg/kg/24 h × 5, 2 courses, 3 weeks interval, week 6): 50%
Decrease or increase (+) of the tumor, % of the initial one ([6]; spontaneous, mice, 15 mg/kg/24 h × 5, 2 courses, 3 weeks interval, week 7): 25%
Decrease or increase (+) of the tumor, % of the initial one ([6]; spontaneous, mice, 15 mg/kg/24 h × 5, 2 courses, 3 weeks interval, week 8): 16%
Extension of the lifespan ([7]; 45 mg/kg × 1, day 2): 27%
Tumor growth inhibition ([7]; 45 mg/kg × 1, day 2, day 15 of experiment): 81%
Tumor growth inhibition ([7]; 45 mg/kg × 1, day 2, day 22 of experiment): 82%
Tumor growth inhibition ([7]; 45 mg/kg × 1, day 2, day 29 of experiment): 80%
Extension of the lifespan of the animals (ELA) (La): 105%
limiting toxicity ([8]; degree depends on the dose): gastroenteral and neurotoxicity (diarrhea, vomition, convulsions)
hematotoxicity ([8]; mouse, in vivo): does not restrict the administration
inhibits growth of substantially all tumors ([9]; Table 2 summary, grafted solid tumors): 80-99%
duration of tumor growth inhibition after completion of the treatment course ([9]; Table 3 summary): ≥ 1 month
extension of the lifespan of the animals as compared to the control ([9]; Table 3 summary): 27-73%
antitumor effect compared with reference agents ([9]; in vivo): considerably superior, as regards its activity on numerous models, over the known alkylating preparation sarcolysine
Extension of the lifespan of the animals (ELA) (P-388): 81%
Maximum tumor growth inhibition (S-180): 93% and 92%
Maximum tumor growth inhibition (Hepatoma G-60): 99%
extension of lifespan of adrenalectomized rat youngsters [10]: 113%
Extension of the lifespan (S-37): 42%
Maximum tumor growth inhibition (S-37): 99%
Tumor growth inhibition (S-37): 99% and 94% and 91%
recovery (S-37): 28%
Maximum tumor growth inhibition (S-37; 45 mg/kg): 99%
Maximum tumor growth inhibition (Lewis lung carcinoma LL): 81%
Extension of the lifespan (Lewis lung carcinoma LL; 15 mg/kg): 38%
Tumor growth inhibition (Lewis lung carcinoma LL; 15 mg/kg): 76% and 56% and 39%
Maximum tumor growth inhibition (Lewis lung carcinoma LL; 45 mg/kg): 90%
regeneration of injured DNA in normal tissue [11]: starts earlier than in the tumor tissue
Extension of the lifespan of the animals (ELA) (L 1210): 31%
reaction with receptors of glucocorticoids in grafted tumors ([12]; RL-67, G-60, G-61, G-22c, Ca-755, S-37, AKATOL, AKATON): reacts with receptors of glucocorticoids in grafted tumors of animals
inhibition of specific combining of [^3 H]-dexamethazone ([12]; tumors of animals): 70-100%
Maximum tumor growth inhibition [13]: 59%
